Results reported in patent US8822182B2, “Chimeric antigen-specific T cell-activating polypeptides” (Mayo Foundation for Medical Education and Research, priority 2001, dated 2014).

Columns and labels:
[1] = tested on: TAP-competent cells expressing H-2K^b (L-K^b); test: Immunofluorescence and confocal microscopy of H-2K^b/OVA257 complexes, TAP-competent cells; assay type: cell-based, mouse; conditions: 25D1.16 staining
Procedure: (§1) T2/K^b or L-K^b cells were cultured overnight on poly-lysine treated glass coverslips. The culture medium was discarded, and the cells were gently washed with PBS. The cells were pre-incubated with serum-free AIM-V medium at 37° C. for 30 minutes and then incubated with peptide/TA solutions at the indicated concentrations for 12 hour at 37° C. After peptide loading, the cells were washed and fixed with 2% formaldehyde for 20 minutes at room temperature. For indirect immunofluorescence, fixed cell monolayers were permeabilized with 0.2% Triton X100 in PBS and incubated with PBS containing 5% goat serum to block non-specific protein binding sites. The cells were double-labeled with mouse monoclonal antibody 25D1.16 specific to OVA257/H-2K^b complex and rabbit polyclonal antibody TGN38 (TGN marker) or rabbit anti-calreticulin (ER marker), followed by 1 hour staining with FITC anti-mIgG and TR anti-rIgG as secondary antibodies. After washing, the coverslips were mounted for observation on glass slides using the Prolong Antifade Kit. The stained cells were examined and photographed with a Leica TCS-SL confocal laser-scanning microscope (Bensheim, Germany).
Utilizing the monoclonal antibody 25D1.16 that specifically reacts with H-2K^b/OVA257 complexes and confocal microscopy, the formation and presence of this CTL epitope in permeabilized TAP-competent and TAP-deficient cells expressing H-2K^b was evaluated. […] These cells were also stained with an antibody specific for calreticulin which is localized within the ER.

[2] = tested on: TAP-deficient cells (T2/K^b); test: Immunofluorescence and confocal microscopy of H-2K^b/OVA257 complexes, T2/K^b cells; assay type: cell-based, human
Procedure: as §1
An antibody specific for trans-Golgi network (TGN38) was used to test whether H-2K^b/OVA257 complexes could also be detected in the trans-Golgi network of cells incubated with TA peptides. […] In these cells, antibody TGN38 stained brightly a structure corresponding to the trans-Golgi. […] These observations reinforce the findings that TA peptides need to penetrate cells in order to create MHC class I/peptide complexes. In addition, these complexes are observed in both the ER and trans-Golgi, even in TAP-deficient cells.

[3] = tested on: TAP-competent EL-4 cells; test: Flow cytometry of surface H-2K^b/OVA257 complexes (25D1.16) with protease inhibitors, EL-4 cells; assay type: cell-based, mouse; conditions: decRVKR-CMK 60 μM, antigen 10 μM overnight, FIGS. 8A-8C
Procedure: (§2) The effects of protease inhibitors on antigen processing and presentation were evaluated by analysis of 25D1.16 staining on different antigen-pulsed EL-4 or T2/K^b cells using flow cytometric analysis. In brief, EL-4 or T2/K^b cells were washed twice with serum-free AIM-V medium (Life Technologies, Rockville, Md.), pre-treated with protease inhibitors (10 μM lactacycstin, 100 μM pepstatin or 60 μM decRVKR-CMK) for 30 minutes and then pulsed with equimolar concentrations of different (as indicated) peptides at 37° C. overnight with the continuous presence of the corresponding protease inhibitors. The serum-free AIM-V medium was used in order to exclude the potential involvement of serum proteases during the peptide-pulsing process. After washing the cells twice with FACS buffer (PBS (phosphate buffered saline) supplemented with 2% FBS and 0.2% sodium azide), peptide-loaded APC were stained with 25D1.16 antibody followed by FITC anti-mIgG for flow analysis. Untreated EL-4 and T2/K^b cells were pulsed with peptides and stained as controls.

[4] = tested on: TAP-deficient T2/K^b cells; test: Flow cytometry of surface H-2K^b/OVA257 complexes (25D1.16) with protease inhibitors, T2/K^b cells; assay type: cell-based, human; conditions: decRVKR-CMK 60 μM, antigen 10 μM overnight, FIGS. 8D-8F
Procedure: as §2
The data described above indicate that TA can be processed in various cellular compartments to produce small peptide epitopes that subsequently associate with MHC class I molecules and the resulting peptide-MHC class I complexes are then transported to the cell surface. Antigen processing could take place: (1) in the cytoplasm, via proteasomal degradation followed by TAP transport; (2) within the ER, where peptide trimming via an aminopeptidase could occur; (3) in the trans-Golgi, where processing of antigens through proteases such as furin can occur; and/or (4) in early endocytic compartments, where peptides that could either bind to recycling MHC class I molecules or leak into other compartments of the MHC class I pathway can be generated. Utilizing antibody 25D1.16, we studied the effects of various inhibitors of antigen processing in the formation of H-2K^b/OVA257 surface complexes by peptides OVA257-HIVtat and HIVtat-OVA257.

[5] = tested on: RMA-S cells; test: Flow cytometry of surface H-2K^b/OVA257 complexes on RMA-S cells with or without furin inhibitor; assay type: cell-based; conditions: 18 hours, 25D1.16 antibody, FIG. 13
Procedure: Aliquots of RMA-S cells were cultured without or with the furin inhibitor decRVKR-CMK (60 μM) at 37° C. After one hour of culture, 4 multiple epitope-containing TA (TA3-A, TA3-B, TA3-C, and TA3-D) or OVA257 were each added to separate cultures, which were then incubated for a further 18 hours. The cells were then harvested and the relative amounts of H-2K^b/OVA257 complexes expressed on the surfaces of the cells were assessed by fluorescence flow cytometry using the 25D1.16 antibody (FIG. 13). […] These findings underscore the importance of furin in processing of antigens to generate peptide epitopes that bind to MHC class I molecules and are then recognized by appropriate peptide epitope-specific CTL.

[6] = tested on: Murine dendritic cells (DC); test: Persistence in dendritic cells: IFN-γ ELISA of OT-1 CTL cultured with pulsed DC; assay type: cell-based, mouse; conditions: DC pulsed 10 μM 2 hours, washed, further 48 hours, CTL:DC 10:1 for 24 hours, FIG. 14
Procedure: Murine dendritic cells (DC) were prepared by culturing C57BL6 mouse (H-2^b) bone marrow […] in the presence of granulocyte macrophage colony stimulating factor (GM-CSF) and interleukin-4 (IL-4) by a method essentially the same as that described by Son et al. [(2002) J. Immunol. Meth. 262:145-157] except that non-adherent cells are removed from the cultures and discarded on day 2 of culture and no density gradient centrifugation step was used. Cells not adhering to the plastic tissue culture vessel at day 6 of culture were harvested and used as DC.
DC were pulsed with either the TA HIVtat-OVA257 (see Table 2) or the peptide epitope OVA257, each at a concentration of 10 μM, for 2 hours at 37° C. The cells were then washed free of the TA or peptide epitope and incubated for a further 48 hours. They were then cultured with cells of the OT-1 CTL clone (specific for H-2K^b/OVA257) at a CTL to DC ratio of 10:1 for 24 hours. Supernatants were then removed from the cultures and the relative amounts of IFN-γ in various dilutions of each supernatant were measured by ELISA (FIG. 14). […] These findings indicate that a peptide epitope persists in DC for a longer period of time when taken up by DC in the form of a TA than when taken up by DC in the form of the peptide epitope per se.

[7] = tested on: TAP deficient RMA-S targets; assay type: cell-based, mouse; conditions: ConA-activated CTL, 10 μM overnight
[8] = tested on: C57BL6 mice; assay type: in vivo, mouse; conditions: 40 μg immunogen in IFA plus CpG adjuvant; spleen cells restimulated 7 days with peptide epitope; RMA-S targets, FIGS. 11A-11C

Sequence: SIINFEKL [OVA257, reference compound]
- presence of H-2K^b/OVA257 complexes in permeabilized cells [1]: abundant
- location of H-2K^b/OVA257 complexes on the cell-surface ([2]; 25D1.16 staining): most of the H-2K^b/OVA257 complexes were on the cell-surface
- localization of H-2K^b/OVA257 complexes to the trans-Golgi ([2]; 25D1.16 superimposed with TGN38 staining): no localization to the trans-Golgi
- effect of furin inhibitor decRVKR-CMK on expression of surface H-2K^b/OVA257 complexes (decrease) [3]: no effect was observed
- effect of furin inhibitor decRVKR-CMK on expression of surface H-2K^b/OVA257 complexes (decrease) [4]: no effect was observed
- cell-surface H-2K^b/OVA257 complexes after exposure of cells [5]: detectable levels
- IFN-γ produced by OT-1 CTL cultured with pulsed DC [6]: insignificant levels of IFN-γ

Sequence: IKAVYNFATCGRVKRSIYRYYGLRVKRSIINFEKLAAARKKRRQRRR [TA3-A]
- sensitization of targets for killing by OVA257-specific CTL ([7]; FIG. 9 left panel): could effectively kill targets sensitized
- sensitization of targets for killing by 2C-specific CTL ([7]; FIG. 9 middle panel): could effectively kill targets sensitized
- induction of CTL responses by in vivo vaccination [8]: at least as effective as the peptide mixture
